This note sets out measurements from patent US9045445B2, “Glycine transporter-1 inhibitors, methods of making them, and uses thereof” (Albany Molecular Research, Inc., priority 2010, dated 2015).

What is called IC50 is the concentration needed to halve the response being measured.

Counter-ions that a name gives are not always drawn.

The target in this experiment is T1, glycine transporter-1 (GlyT-1) (Homo sapiens, UniProt P48067).
T1 construct: JAR cells (ATCC#HTB-144), which endogenously express GlyT-1; host or cells: JAR human choriocarcinoma cells
T1 sequence (P48067 1-706): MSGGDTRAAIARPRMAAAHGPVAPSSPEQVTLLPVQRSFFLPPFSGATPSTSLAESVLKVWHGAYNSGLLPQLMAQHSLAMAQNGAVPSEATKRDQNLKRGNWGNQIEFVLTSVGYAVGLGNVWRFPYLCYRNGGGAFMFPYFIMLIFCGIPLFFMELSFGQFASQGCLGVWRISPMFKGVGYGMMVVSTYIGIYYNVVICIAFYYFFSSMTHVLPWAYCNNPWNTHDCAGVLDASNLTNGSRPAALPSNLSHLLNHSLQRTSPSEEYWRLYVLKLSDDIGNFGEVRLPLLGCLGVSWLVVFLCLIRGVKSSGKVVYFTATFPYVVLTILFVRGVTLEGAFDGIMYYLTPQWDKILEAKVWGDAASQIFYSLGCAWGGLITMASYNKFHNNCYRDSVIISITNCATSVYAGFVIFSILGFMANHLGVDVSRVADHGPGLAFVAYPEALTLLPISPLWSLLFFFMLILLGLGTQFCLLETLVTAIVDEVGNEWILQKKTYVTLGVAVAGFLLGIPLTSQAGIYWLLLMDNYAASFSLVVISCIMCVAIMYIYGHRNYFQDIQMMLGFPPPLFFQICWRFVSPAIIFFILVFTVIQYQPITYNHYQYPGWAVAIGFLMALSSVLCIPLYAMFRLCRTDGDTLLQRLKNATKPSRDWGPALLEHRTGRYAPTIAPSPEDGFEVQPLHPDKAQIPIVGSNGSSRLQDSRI
Nature of the experiment: [14C]glycine uptake assay in JAR cells endogenously expressing GlyT-1 (scintillation proximity). The following applies: JAR cells, [14C]glycine 5 μM, 3 hour incubation; read-out: GlyT-1 IC50. Type of experiment: cell-based. As to the method:
The inhibitory activity of compounds of the invention against the glycine transporter-1 (GlyT-1) can be determined by the following scintillation proximity assay. The potency of each compound was assessed in inhibiting the uptake of radiolabeled glycine ([^14C]glycine) using the human choriocarcinoma cell line, JAR cells (ATCC#HTB-144), which endogenously express GlyT-1. In brief, 50,000 JARS cells were plated per well of tissue culture treated 96-well Cytostar-T plate (PerkinElmer) in RPMI media supplemented with 10% heat inactivated FBS and allowed to attach overnight at 37° C. and 5% CO2. Compounds were serially diluted 3-fold in DMSO generating a nine (9) data point response curve for each compound. Two replicates were performed per determination. The compounds were then diluted into Uptake Buffer (10 mM Hepes, 120 mM NaCl, 2 mM KCl, 1 mM CaCl2 and 1 mM MgCl2, 5 mM Alanine, pH 7.4) with a final DMSO concentration of 0.75% (v/v). Following the overnight incubation, the media was replaced with Uptake Buffer in the presence or absence of diluted compound and pre-incubated at room temperature for 10 minutes prior to the addition of [^14C]glycine at a final concentration of 5 μM. Following a 3 hour incubation period at 37° C. and 5% CO2, the plates were sealed and placed at room temperature in the dark for 15 minutes prior to quantification of incorporated radioactivity using a MicroBeta Trilux scintillation plate reader (PerkinElmer). Data were fit into a four-parameter model to determine the inhibitor concentration at half-maximal response (IC50). The assay window was established by control wells incubated with [^14C]glycine in the presence or absence of 10 mM non-labeled glycine. A dose response curve for a synthesized reference standard was generated on every plate as a positive control.
(SPA uses beads or plates that emit light when radiolabelled molecules are held near them.)
Take `Cn1cc(S(=O)(=O)N2CCN(C3(CNC(=O)c4ccc(F)cc4F)CCC(F)(F)CC3)CC2)nn1` [compound 229, N-((4,4-Difluoro-1-(4-(1-methyl-1H-1,2,3-triazol-4-ylsulfonyl)piperazin-1-yl)cyclohexyl)methyl)-2,4-difluorobenzamide Hydrochloride]: the IC50 was 10 nM.

Regarding `CCS(=O)(=O)N1CCN(C2(CNC(=O)c3ccc(C(C)(F)F)cc3Cl)CCC(F)(F)CC2)CC1` [compound 205, 2-Chloro-4-(1,1-difluoroethyl)-N-((1-(4-(ethylsulfonyl)piperazin-1-yl)-4,4-difluorocyclohexyl)methyl) benzamide Hydrochloride], the concentration for half-maximal inhibition (IC50) is 187 nM.

Regarding `Cn1cc(S(=O)(=O)N2CCN(C3(CNC(=O)c4c(F)cc(Cl)cc4Cl)CCC(F)(F)CC3)CC2)nn1` [compound 241, 2,4-Dichloro-N-((4,4-difluoro-1-(4-(1-methyl-1H-1,2,3-triazol-4-ylsulfonyl)piperazin-1-yl)cyclohexyl)methyl)-6-fluorobenzamide Hydrochloride], the IC50 turned out to be 1 nM.

For `Cn1cnc(S(=O)(=O)N2CCN(C3(CNC(=O)c4ccccc4F)CCC(F)(F)CC3)CC2)c1` [compound 175, N-((4,4-Difluoro-1-(4-(1-methyl-1H-imidazol-4-ylsulfonyl)piperazin-1-yl)cyclohexyl)methyl)-2-fluorobenzamide Hydrochloride], the IC50 came out at 57 nM.

Take `CCCS(=O)(=O)N1CCN(C2(CNC(=O)c3cc(Cl)ccc3Cl)CCC(F)(F)CC2)CC1` [compound 243, 2,5-Dichloro-N-((4,4-difluoro-1-(4-(propylsulfonyl)piperazin-1-yl)cyclohexyl)methyl) benzamide Hydrochloride]: the IC50 was determined as 57 nM.

Take `CCCS(=O)(=O)N1CCN(C2(CNC(=O)c3c(F)cc(Cl)cc3Cl)CCC(F)(F)CC2)CC1` [compound 255, 2,4-Dichloro-N-((4,4-difluoro-1-(4-(propylsulfonyl)piperazin-1-yl)cyclohexyl)methyl)-6-Fluorobenzamide Hydrochloride]: the IC50 was 14 nM.

Turning to `CCCS(=O)(=O)N1CCN(C2(CNC(=O)c3ccc(OC)cc3)CCCCCC2)CC1` [compound 67, 4-Methoxy-N-((1-(4-(propylsulfonyl)piperazin-1-yl)cycloheptyl)methyl) benzamide Hydrochloride], the IC50 amounted to 863 nM.

As to `CCCS(=O)(=O)N1CCN(C2(CNC(=O)c3ccc(Cl)cc3F)CCC(F)(F)CC2)CC1` [compound 143, 4-Chloro-N-((4,4-difluoro-l-(4-(propylsulfonyl)piperazin-1-yl)cyclohexyl)methyl)-2-fluorobenzamide Hydrochloride], the IC50 is 137 nM.

For `Cn1cc(S(=O)(=O)N2CCN(C3(CNC(=O)c4c(Cl)cccc4Cl)CCC(F)(F)CC3)CC2)nn1` [compound 190, 2,6-Dichloro-N-((4,4-difluoro-1-(4-(1-methyl-1H-l,2,3-triazol-4-ylsulfonyl)piperazin-1-yl)cyclohexyl)methyl) benzamide Hydrochloride], the IC50 was 1 nM.

Consider `O=C(NCC1(N2CCN(S(=O)(=O)c3cccnc3)CC2)CCC(F)(F)CC1)c1c(F)cccc1F` [compound 269, N-((4,4-Difluoro-1-(4-(pyridin-3-ylsulfonyl)piperazin-1-yl)cyclohexyl)methyl)-2,6-difluorobenzamide Hydrochloride], for which the IC50 turned out to be 817 nM.

On to `CCCS(=O)(=O)N1CCN(C2(CNC(=O)c3ccc(F)cc3C(F)(F)F)CCC(F)(F)CC2)CC1` [compound 148, N-((4,4-Difluoro-1-(4-(propylsulfonyl)piperazin-1-yl)cyclohexyl)methyl)-4-fluoro-2-(trifluoromethyl)benzamide Hydrochloride], for which the IC50 turned out to be 30 nM.

`CCCS(=O)(=O)N1CCN(C2(CNC(=O)c3c(F)cc(F)cc3F)CCC(F)(F)CC2)CC1` [compound 144, N-((4,4-Difluoro-1-(4-(propylsulfonyl)piperazin-1-yl)cyclohexyl)methyl)-2,4,6-trifluorobenzamide Hydrochloride]: the IC50 came to 46 nM.

With `CCCS(=O)(=O)N1CCN(C2(CNC(=O)c3c(Cl)cccc3Cl)CCCCC2)CC1` [compound 43, 2,6-Dichloro-N-((1-(4-(propylsulfonyl)piperazin-1-yl)cyclohexyl)methyl) benzamide Hydrochloride], the IC50 was determined as 12 nM.

On to `CCS(=O)(=O)N1CCN(C2(CNC(=O)c3c(F)cc(OC)cc3F)CCC(F)(F)CC2)CC1` [compound 216, N-((1-(4-(Ethylsulfonyl)piperazin-1-yl)-4,4-difluorocyclohexyl)methyl)-2,6-difluoro-4-methoxybenzamide Hydrochloride], for which the IC50 amounted to 1290 nM.

`Cn1cnc(S(=O)(=O)N2CCN(C3(CNC(=O)c4ccc(C(F)(F)F)cc4F)CCC(F)(F)CC3)CC2)c1` [compound 170, N-((4,4-Difluoro-1-(4-(1-methyl-1H-imidazol-4-ylsulfonyl)piperazin-1-yl)cyclohexyl)methyl)-2-fluoro-4-(trifluoromethyl)benzamide Hydrochloride]: the IC50 is 14 nM.

Regarding `CCCS(=O)(=O)N1CCN(C2(CNC(=O)c3c(F)cccc3F)CCCCC2)CC1` [compound 16, 2,6-Difluoro-N-((1-(4-(propylsulfonyl)piperazin-1-yl)cyclohexyl)methyl) benzamide Hydrochloride], the IC50 was determined as 23 nM.

Take `CCCS(=O)(=O)N1CCN(C2(CNC(=O)c3c(F)cccc3F)CCC3(CC3)CC2)CC1` [compound 198, 2,6-Difluoro-N-((6-(4-(propylsulfonyl)piperazin-1-yl)spiro[2.5]octan-6-yl)methyl)benzamide Hydrochloride]: the IC50 amounted to 162 nM.

Turning to `CCCS(=O)(=O)N1CCN(C2(CNC(=O)c3ccc(Cl)cc3OC(F)F)CCC(F)(F)CC2)CC1` [compound 249, 4-Chloro-N-((4,4-difluoro-1-(4-(propylsulfonyl)piperazin-1-yl)cyclohexyl)methyl)-2-(difluoromethoxy) benzamide Hydrochloride], the IC50 came to 37 nM.

Consider `CCCS(=O)(=O)N1CCN(C2(CNC(=O)c3ccc(C)cc3)CCCCCC2)CC1` [compound 57, 4-Methyl-N-((1-(4-(propylsulfonyl)piperazin-1-yl)cycloheptyl)methyl) benzamide Hydrochloride], for which the IC50 was found to be 887 nM.

Turning to `CCCS(=O)(=O)N1CCN(C2(CNC(=O)c3c(F)cccc3OC(F)F)CCC(F)(F)CC2)CC1` [compound 250, N-((4,4-Difluoro-1-(4-(propylsulfonyl)piperazin-1-yl)cyclohexyl)methyl)-2-(difluoromethoxy)-6-fluorobenzamide Hydrochloride], the IC50 was determined as 24 nM.

`Cn1cnc(S(=O)(=O)N2CCN(C3(CNC(=O)c4c(F)cccc4OC(F)F)CCC(F)(F)CC3)CC2)c1` [compound 188, N-((4,4-Difluoro-1-(4-(1-methyl-1H-imidazol-4-ylsulfonyl)piperazin-1-yl)cyclohexyl)methyl)-2-(difluoromethoxy)-6-fluorobenzamide Hydrochloride]: the IC50 was determined as 1 nM.

With `CCCS(=O)(=O)N1CCN(C2(CNC(=O)c3cc(C(F)(F)F)ccc3C(F)(F)F)CCC(F)(F)CC2)CC1` [compound 248, N-((4,4-Difluoro-1-(4-(propylsulfonyl)piperazin-1-yl)cyclohexyl)methyl)-2,5-bis(trifluoromethyl) benzamide Hydrochloride], the IC50 worked out at 159 nM.

`Cn1cc(S(=O)(=O)N2CCN(C3(CNC(=O)c4c(Cl)cccc4OC(F)(F)F)CCC(F)(F)CC3)CC2)nn1` [compound 191, 2-Chloro-N-((4,4-difluoro-1-(4-(1-methyl-1H-1,2,3-triazol-4-ylsulfonyl)piperazin-1-yl)cyclohexyl)methyl)-6-(trifluoromethoxy) benzamide Hydrochloride]: the IC50 worked out at 1 nM.
